The values below come from the supplement of paper PMC8967900.
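Note: ALL cell lines in 384-well plates, five doses spanning 10,000-fold, each plate scaled between vehicle and 100 µmol/L benzalkonium chloride controls, sDSS an adapted area-under-curve metric.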

The subject of one test is HAL-01. Kind of test: selective drug sensitivity score (sDSS, relative to normal bone marrow) (sDSS (score)); higher = more potent and effective on the cell line relative to normal bone marrow cells. The conditions noted are these: 72 h.
For `Cn1cc(-c2ccc(F)c(C(F)(F)F)c2)nc1C1CCN(c2ncnc3[nH]ncc23)CC1` (top concentration 10000 nM), the “selective drug sensitivity score” value was 1.66.

In the case of `O=C(Nc1ccc2[nH]nc(-c3ccncc3)c2c1)[C@@H]1CCN(CC(=O)N2CCN(c3ccc(-c4ncccn4)cc3)CC2)C1` (top concentration 10000 nM), the “selective drug sensitivity score” value was determined as 0.06.

On to `CC(C)(C)c1cc(NC(=O)Nc2ccc(Oc3ccnc4[nH]c(=O)cnc34)cc2F)n(-c2ccccc2)n1` (top concentration 25000 nM), for which the “selective drug sensitivity score” value came out at 2.02.

Take `Nc1ncnc2c1nc(N)n2[C@@H]1O[C@H](CO)[C@@H](O)[C@H]1O` [8-amino-adenosine] (top concentration 50000 nM): the “selective drug sensitivity score” value worked out at 7.08.

On to `CC(C)[C@@H](CS(=O)(=O)C(C)C)N1C(=O)[C@@](C)(CC(=O)O)C[C@H](c2cccc(Cl)c2)[C@H]1c1ccc(Cl)cc1` [AMG-232] (top concentration 10000 nM), for which the “selective drug sensitivity score” value was 11.

Consider `CC(C)[C@H](C(=O)Nc1ccc(C(=O)NO)cc1)c1ccccc1` [AR-42] (top concentration 10000 nM), for which the “selective drug sensitivity score” value stood at 3.28.

`O=C(Nc1c[nH]nc1-c1nc2ccc(CN3CCOCC3)cc2[nH]1)NC1CC1` [AT9283] (top concentration 1000 nM): the “selective drug sensitivity score” value was 1.92.

For `CCN(CCO)CCCOc1ccc2c(Nc3cc(CC(=O)Nc4cccc(F)c4)[nH]n3)ncnc2c1` [AZD1152-HQPA] (top concentration 1000 nM), the “selective drug sensitivity score” value is -4.46.

For the compound `Cc1[nH]nc(C(F)(F)F)c1Cc1sc2c(c1C(=O)N1C[C@](C)(O)CO1)c(=O)n(C)c(=O)n2C(C)C` [AZD3965] (top concentration 1000 nM), the “selective drug sensitivity score” value came out at 1.

Another test has as its system JURKAT. Described as above. The conditions noted are these: 72 h.
For the compound `COC12C(COC(N)=O)C3=C(C(=O)C(C)=C(N)C3=O)N1CC1NC12` (stereo in doubt) [Mitomycin_C] (top concentration 10000 nM), the “selective drug sensitivity score” value was -2.86.

For `Cc1c(-c2c(-c3ccc(F)o3)sc3ncnc(O[C@H](Cc4ccccc4OCc4ccnn4CC(F)(F)F)C(=O)O)c23)ccc(OCCN2CCN(C)CC2)c1Cl` (top concentration 1000 nM), the “selective drug sensitivity score” value was -6.44.

On to `Cc1ncc(Cl)cc1NCc1ccc(C(=O)N[C@@H](CC2CCCC2)C(=O)NC2CC2)s1` (top concentration 5000 nM), for which the “selective drug sensitivity score” value worked out at 0.76.

Consider `CCn1c(-c2nonc2N)nc2c(C#CC(C)(C)O)ncc(OC[C@H]3CCCNC3)c21` (top concentration 10000 nM), for which the “selective drug sensitivity score” value stood at 7.48.

Turning to `CN(c1ncccc1CNc1nc(Nc2ccc3c(c2)CC(=O)N3)ncc1C(F)(F)F)S(C)(=O)=O` (top concentration 10000 nM), the “selective drug sensitivity score” value came to 1.52.

Take `CNc1ncc2cc(-c3cc(NC(=O)NCCC(C)(C)C)c(F)cc3C)c(C)nc2n1` (top concentration 10000 nM): the “selective drug sensitivity score” value was 2.56.

Consider `C[C@@]1(C(=O)Nc2ccc(F)nc2)CCCN1c1nc(Nc2cc(C3CC3)n[nH]2)c2cccn2n1` (top concentration 10000 nM), for which the “selective drug sensitivity score” value is -2.62.

Consider `Cc1nc(Nc2n[nH]c3c2CN(C(=O)N[C@H](CN(C)C)c2ccccc2)C3(C)C)c2sccc2n1` (top concentration 10000 nM), for which the “selective drug sensitivity score” value came to 0.68.

For the compound `Cn1cc(-c2[nH]c3cc(NC(=O)[C@H](N)C4CCCCC4)cc4c3c2C=NNC4=O)cn1` (top concentration 10000 nM), the “selective drug sensitivity score” value was 3.48.

On to `Cn1cc(-c2ccc(F)c(C(F)(F)F)c2)nc1C1CCN(c2ncnc3[nH]ncc23)CC1` (top concentration 10000 nM), for which the “selective drug sensitivity score” value is -0.14.

For `O=C(Nc1ccc2[nH]nc(-c3ccncc3)c2c1)[C@@H]1CCN(CC(=O)N2CCN(c3ccc(-c4ncccn4)cc3)CC2)C1` (top concentration 10000 nM), the “selective drug sensitivity score” value was -2.04.

Take `CC(C)(C)c1cc(NC(=O)Nc2ccc(Oc3ccnc4[nH]c(=O)cnc34)cc2F)n(-c2ccccc2)n1` (top concentration 25000 nM): the “selective drug sensitivity score” value was -1.48.

Consider `Nc1ncnc2c1nc(N)n2[C@@H]1O[C@H](CO)[C@@H](O)[C@H]1O` [8-amino-adenosine] (top concentration 50000 nM), for which the “selective drug sensitivity score” value is -5.42.

For `CC(C)[C@@H](CS(=O)(=O)C(C)C)N1C(=O)[C@@](C)(CC(=O)O)C[C@H](c2cccc(Cl)c2)[C@H]1c1ccc(Cl)cc1` [AMG-232] (top concentration 10000 nM), the “selective drug sensitivity score” value is -8.34.

As for `CC(C)[C@H](C(=O)Nc1ccc(C(=O)NO)cc1)c1ccccc1` [AR-42] (top concentration 10000 nM), the “selective drug sensitivity score” value amounted to 5.28.

Turning to `O=C(Nc1c[nH]nc1-c1nc2ccc(CN3CCOCC3)cc2[nH]1)NC1CC1` [AT9283] (top concentration 1000 nM), the “selective drug sensitivity score” value is -1.38.

For `CCN(CCO)CCCOc1ccc2c(Nc3cc(CC(=O)Nc4cccc(F)c4)[nH]n3)ncnc2c1` [AZD1152-HQPA] (top concentration 1000 nM), the “selective drug sensitivity score” value was -0.26.

As for `Cc1[nH]nc(C(F)(F)F)c1Cc1sc2c(c1C(=O)N1C[C@](C)(O)CO1)c(=O)n(C)c(=O)n2C(C)C` [AZD3965] (top concentration 1000 nM), the “selective drug sensitivity score” value worked out at 0.

A further test deals with KASUMI-9. The description is as above. The conditions noted are these: 72 h.
As to `COC12C(COC(N)=O)C3=C(C(=O)C(C)=C(N)C3=O)N1CC1NC12` (stereo in doubt) [Mitomycin_C] (top concentration 10000 nM), the “selective drug sensitivity score” value came to 4.04.

Take `Cc1c(-c2c(-c3ccc(F)o3)sc3ncnc(O[C@H](Cc4ccccc4OCc4ccnn4CC(F)(F)F)C(=O)O)c23)ccc(OCCN2CCN(C)CC2)c1Cl` (top concentration 1000 nM): the “selective drug sensitivity score” value is -1.84.

Turning to `Cc1ncc(Cl)cc1NCc1ccc(C(=O)N[C@@H](CC2CCCC2)C(=O)NC2CC2)s1` (top concentration 5000 nM), the “selective drug sensitivity score” value is -0.84.

Regarding `CCn1c(-c2nonc2N)nc2c(C#CC(C)(C)O)ncc(OC[C@H]3CCCNC3)c21` (top concentration 10000 nM), the “selective drug sensitivity score” value stood at 0.98.

For the compound `CN(c1ncccc1CNc1nc(Nc2ccc3c(c2)CC(=O)N3)ncc1C(F)(F)F)S(C)(=O)=O` (top concentration 10000 nM), the “selective drug sensitivity score” value came out at 0.12.

Consider `CNc1ncc2cc(-c3cc(NC(=O)NCCC(C)(C)C)c(F)cc3C)c(C)nc2n1` (top concentration 10000 nM), for which the “selective drug sensitivity score” value worked out at 9.16.

For the compound `C[C@@]1(C(=O)Nc2ccc(F)nc2)CCCN1c1nc(Nc2cc(C3CC3)n[nH]2)c2cccn2n1` (top concentration 10000 nM), the “selective drug sensitivity score” value was 8.08.

Regarding `Cc1nc(Nc2n[nH]c3c2CN(C(=O)N[C@H](CN(C)C)c2ccccc2)C3(C)C)c2sccc2n1` (top concentration 10000 nM), the “selective drug sensitivity score” value amounted to 11.6.

`Cn1cc(-c2[nH]c3cc(NC(=O)[C@H](N)C4CCCCC4)cc4c3c2C=NNC4=O)cn1` (top concentration 10000 nM): the “selective drug sensitivity score” value was 7.88.

As for `Cn1cc(-c2ccc(F)c(C(F)(F)F)c2)nc1C1CCN(c2ncnc3[nH]ncc23)CC1` (top concentration 10000 nM), the “selective drug sensitivity score” value worked out at 0.66.

With `O=C(Nc1ccc2[nH]nc(-c3ccncc3)c2c1)[C@@H]1CCN(CC(=O)N2CCN(c3ccc(-c4ncccn4)cc3)CC2)C1` (top concentration 10000 nM), the “selective drug sensitivity score” value was 0.36.

As for `CC(C)(C)c1cc(NC(=O)Nc2ccc(Oc3ccnc4[nH]c(=O)cnc34)cc2F)n(-c2ccccc2)n1` (top concentration 25000 nM), the “selective drug sensitivity score” value was -1.18.

For the compound `Nc1ncnc2c1nc(N)n2[C@@H]1O[C@H](CO)[C@@H](O)[C@H]1O` [8-amino-adenosine] (top concentration 50000 nM), the “selective drug sensitivity score” value amounted to 7.08.

With `CC(C)[C@@H](CS(=O)(=O)C(C)C)N1C(=O)[C@@](C)(CC(=O)O)C[C@H](c2cccc(Cl)c2)[C@H]1c1ccc(Cl)cc1` [AMG-232] (top concentration 10000 nM), the “selective drug sensitivity score” value was found to be 13.1.

Consider `CC(C)[C@H](C(=O)Nc1ccc(C(=O)NO)cc1)c1ccccc1` [AR-42] (top concentration 10000 nM), for which the “selective drug sensitivity score” value was found to be 8.08.

In the case of `O=C(Nc1c[nH]nc1-c1nc2ccc(CN3CCOCC3)cc2[nH]1)NC1CC1` [AT9283] (top concentration 1000 nM), the “selective drug sensitivity score” value was 10.7.

Consider `CCN(CCO)CCCOc1ccc2c(Nc3cc(CC(=O)Nc4cccc(F)c4)[nH]n3)ncnc2c1` [AZD1152-HQPA] (top concentration 1000 nM), for which the “selective drug sensitivity score” value was 17.1.

Take `Cc1[nH]nc(C(F)(F)F)c1Cc1sc2c(c1C(=O)N1C[C@](C)(O)CO1)c(=O)n(C)c(=O)n2C(C)C` [AZD3965] (top concentration 1000 nM): the “selective drug sensitivity score” value was 2.7.
